{"source": "patent EP1105728B1", "about": "“MODULATING MULTIPLE LINEAGE KINASE PROTEINS” (CEPHALON, INC., priority 1998, dated 2000)", "key": {"[1]": {"test_system": "IL-1", "experiment": "Induction of IL-1 by LPS in THP-1 cells (ELISA)", "format": "cell-based", "protocol": "THP-1 cells were grown in RPMI 1640 medium supplemented with 10% fetal bovine serum. LPS (E.coli serotype 0111.B4, TCA extracted) was purchased from Sigma and dissolved in PBS. ELISA kits for assaying IL-1 and TNF-α were purchased from Boerhinger-Mannheim and assays on THP-1 culture medium were performed as directed by the manufacturer. Standard curves according to directions were obtained with each assay.\nExperiments were performed in 12 well culture plates with either 1 or 2 ml of THP-1 cells at 4 X 10^5 cells/ml. IL-1 and TNF-α were induced by the addition of LPS to the culture medium and the medium collected at various times thereafter for cytokine assay. Cells were removed by centrifugation and the supernatants frozen at -70°C until assay. To minimize costs experiments were performed in duplicate cultures and the duplicate supernatants were pooled after centrifugation. Each pooled supernatant was assayed in duplicate. Stock solutions of indolo- and fused pyrrolocarbazoles in 100% DMSO were diluted to the desired concentrations in either medium containing 10% fetal bovine serum or in medium containing 0.5 mg/ml BSA. Unless otherwise stated, compounds were added to the THP-1 cells 1 hr prior to the addition of LPS."}, "[2]": {"test_system": "chick motoneurons", "experiment": "Survival of chick embryonic motoneurons", "format": "cell-based", "protocol": "Motoneurons (embryonic day 5.5) were isolated with an immunological method according to the procedure set forth in Bloch-Gallego, et al., Development, 1991, 111, 221-232, which is incorporated herein by reference in its entirety, with modifications as described in Weng, et al., NeuroReport, 1996, 7, 1077-1081, which is incorporated herein by reference in its entirety. Purified motoneurons were seeded onto 35 mm tissue culture dishes (Nunc) pre-coated with poly-DL-omithine and laminin (1 µg/ml, Upstate Biotech). […] Muscle extract was supplemented at 30 µg/ml. Compound III-3 was prepared as a 4mM stock solution in DMSO and stored protected from light at 4°C. The final concentration of DMSO in treated and control cultures was 0.125%.\n(§1) Neurons were plated in 35 mm culture dishes with grids (Nunc). Selected areas of each dish comprising together about 10% of the surface scanned for the presence of phase bright cells immediately after plating and again after 48 h to assess survival percentages. Cell survival was confirmed by vital staining with trypan blue (not shown)."}, "[3]": {"test_system": "sympathetic ganglion neurons (SG)", "experiment": "Survival of chick embryonic sympathetic ganglion neurons", "format": "cell-based", "protocol": "Paravertebral sympathetic ganglia (SG; embryonal day 12 (E12)), dorsal root ganglia (DRG;E9), and ciliary ganglia (CG;E8) were dissected from chick embryos at the indicated embryonic day as described in Lindsay, et al., Dev. Biol., 1985, 112, 319-328, which is incorporated herein by reference in its entirety. After trypsinization and dissociation, the nerve cell suspensions were plated onto polyomithine-laminin-coated culture dishes in Ham's F14 culture medium, supplemented with 10% horse serum. Immediately after plating, survival factors were added at the following concentrations: Nerve growth factor (NGF), 20 ng/ml; ciliary neutrophic factor (CNTF), 10 ng/ml. The cultures were maintained at 37° and 5% CO2 in a humidified environment.\nas §1"}, "[4]": {"test_system": "hypoglossal motor neurons", "experiment": "Axotomy-induced motor neuronal dedifferentiation in the adult rat (hypoglossal nerve)", "format": "in vivo", "details": "for ChAT-Positive Motor Neurons Average/Group / ChAT-Positive Motor Neurons Experimental/Control / ChAT-Positive Motor Neurons %: 7 days; for ChAT-Positive Motor Neurons Experimental/Control: counts ipsilateral/contralateral; for ChAT-Positive Motor Neurons Experimental/Control / ChAT-Positive Motor Neurons %: per animal", "protocol": "The left hypoglossal nerve was transected in the neck of adult female Sprague-Dawley rats (120-180 g) under Neumbutol anesthesia, and 50 µl of Compound III-3 or its vehicle (5% Solutol™ HS 15) were applied to a piece of Gelfoam ™ (AJ Buck, Owings Mills, MD), then wrapped around the proximal end of the transected nerve. After 7 days, the animals were anesthetized and perfused with 4% paraformaldehyde in Sorenson's buffer, 0.07 M phosphate, pH 7.2. The brain stem was removed and 40- µm-thick serial coronal sections were cut on a cryostat (Chiu, et al., NeuroReport, 1994, 5, 693-696, which is incorporated herein by reference in its entirety). Every fifth section was processed for ChAT immunohistochemistry as previously described (Chiu, et al., J. Comp. Neurol., 1993, 328, 351-363, which is incorporated herein by reference in its entirety) using a 1:350 dilution of an anti-ChAT monoclonal antibody obtained from Chemicon. Cells that stained clearly above background were counted in stained sections; the number of enumerated cells was expressed as the ratio of the number of ChAT-immunoreactive cells on the axotomized side of the hypoglossal nucleus versus the number of immunoreactive cells on the control (uninjured) side."}, "[5]": {"test_system": "substantia nigra tyrosine hydroxylase immunoreactive neurons", "experiment": "MPTP model: substantia nigra tyrosine hydroxylase immunoreactive neurons", "format": "in vivo, mice", "details": "MPTP 40 mg/kg; systemically administered (Fig. 22a)", "protocol": "MPTP was administered at a dose (40 mg/kg) that produces loss of striatal dopaminergic terminals and cell bodies in the substantia nigra. Tyrosine hydroxylase was used as a marker for dopamenergic nerve terminals in the substantia nigra. […] Since Compound III-3 is a known inhibitor of MLK3, activation of a downstream substrate of MLK3 was measured in MPTP- treated mice. Levels of phosphorylated MKK4 were measured using a phospho-MKK4 specific antibody (New England Biolabs, Beverly, MA) that recognizes the monophosphorylated form of MKK4 by either immunoblot (Fig. 22b) or ELISA (Fig. 22c). MPTP administration elevated levels of phosphorylated MKK4 in the substantia nigra by up to 5 fold over control levels (Fig. 22b). Peak elevations occurred 4 hrs after administration ofMPTP and coincided with peak CNS levels of MPP^+."}, "[6]": {"biological_target": "T1, MEKK1 (Homo sapiens, UniProt Q13233)", "T1 construct": "expressed in transfected cells; host or cells: Cos7", "T1 sequence (Q13233 whole entry, species assumed)": "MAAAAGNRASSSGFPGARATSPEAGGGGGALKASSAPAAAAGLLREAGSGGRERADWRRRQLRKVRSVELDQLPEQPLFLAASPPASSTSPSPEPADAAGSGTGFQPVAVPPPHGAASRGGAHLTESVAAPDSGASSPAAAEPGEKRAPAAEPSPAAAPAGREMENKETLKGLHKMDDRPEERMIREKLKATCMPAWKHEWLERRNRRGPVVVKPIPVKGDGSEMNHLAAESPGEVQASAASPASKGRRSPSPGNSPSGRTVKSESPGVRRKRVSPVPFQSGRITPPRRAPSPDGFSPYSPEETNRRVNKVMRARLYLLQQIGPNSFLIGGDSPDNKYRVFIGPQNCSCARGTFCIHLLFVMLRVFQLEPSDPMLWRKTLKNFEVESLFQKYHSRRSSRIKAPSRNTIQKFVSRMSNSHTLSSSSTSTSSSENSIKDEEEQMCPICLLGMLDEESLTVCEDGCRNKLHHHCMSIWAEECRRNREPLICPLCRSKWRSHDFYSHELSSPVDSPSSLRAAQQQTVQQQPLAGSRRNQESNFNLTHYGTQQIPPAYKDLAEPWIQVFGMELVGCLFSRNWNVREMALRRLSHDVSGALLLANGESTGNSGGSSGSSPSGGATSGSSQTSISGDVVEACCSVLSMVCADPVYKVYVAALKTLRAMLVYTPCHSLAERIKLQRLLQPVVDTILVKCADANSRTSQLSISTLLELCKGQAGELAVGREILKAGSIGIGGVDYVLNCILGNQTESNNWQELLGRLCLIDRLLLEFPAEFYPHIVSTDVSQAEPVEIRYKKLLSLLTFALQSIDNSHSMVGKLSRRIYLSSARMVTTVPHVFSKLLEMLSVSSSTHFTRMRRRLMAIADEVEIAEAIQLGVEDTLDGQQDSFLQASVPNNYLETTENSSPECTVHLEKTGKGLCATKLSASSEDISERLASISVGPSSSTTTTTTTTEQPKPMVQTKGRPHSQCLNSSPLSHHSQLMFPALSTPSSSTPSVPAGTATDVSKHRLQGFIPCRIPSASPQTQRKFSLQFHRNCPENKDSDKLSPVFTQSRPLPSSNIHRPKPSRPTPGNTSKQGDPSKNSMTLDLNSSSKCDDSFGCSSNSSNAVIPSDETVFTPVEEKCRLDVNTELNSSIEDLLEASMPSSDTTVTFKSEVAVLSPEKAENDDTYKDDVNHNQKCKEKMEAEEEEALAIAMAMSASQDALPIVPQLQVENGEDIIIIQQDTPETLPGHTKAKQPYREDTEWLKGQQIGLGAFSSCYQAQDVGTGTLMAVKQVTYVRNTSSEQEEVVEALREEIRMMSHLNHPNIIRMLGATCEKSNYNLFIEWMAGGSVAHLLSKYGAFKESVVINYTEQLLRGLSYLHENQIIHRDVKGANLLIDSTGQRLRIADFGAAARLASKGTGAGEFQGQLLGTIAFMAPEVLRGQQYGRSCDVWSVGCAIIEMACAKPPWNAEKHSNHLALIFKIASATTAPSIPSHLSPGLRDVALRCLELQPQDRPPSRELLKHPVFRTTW", "experiment": "JNK activity in Cos7 cells overexpressing HA-JNK1 with MEKK1", "format": "cell-based", "details": "500 nM; Cos7 cells overexpressing HA-JNK1 with MEKK1 (Figure 15C)"}}, "note": "Where “and” joins values, the source holds several entries; their conditions need not be identical. Equal entries are not always repeated. Where two headings read alike, the source gives them in different places. Marks after values point to notes of the source that are not given here."}
{"smiles": "CCSCc1ccc2c(c1)c1c3c(c4c5cc(CSCC)ccc5n5c4c1n2C1CC(O)(C(=O)OC)C5(C)O1)CNC3=O", "note": "(stereo not shown) [III-3]", "values": [{"measurement": "IC50", "setting": "[1]; Homo sapiens, THP-1, THP-1 cells, medium containing 10% fetal bovine serum, read-out: IC50 inhibition of the induction of IL-1", "value": 267, "unit": "nM"}, {"measurement": "IC50", "setting": "[1]; Homo sapiens, THP-1, THP-1 cells, serum-free medium (500 µg/ml BSA), cytokine not named, read-out: IC50 in serum-free medium", "value": 23, "unit": "nM"}, {"measurement": "IC50", "setting": "[1]; THP-1 cells, medium containing 10% fetal bovine serum, read-out: IC50 inhibition of the induction of IL-1", "value": 269, "unit": "nM"}, {"measurement": "motoneurons survived", "setting": "[2]; after 48 h, Compound III-3 300 nM, serum-free conditions, muscle extract 30 µg/ml", "value": 79, "unit": "%"}, {"measurement": "motoneurons alive", "setting": "[2]; after four days in culture", "value": 56, "unit": "%"}, {"measurement": "concentration of maximal survival effect", "setting": "[2]; serum-free conditions, higher concentrations showed a progressively reduced effect", "value": 300, "unit": "nM"}, {"measurement": "concentration at which the survival effect reached a plateau", "setting": "[3]; 10% serum (Fig. 16)", "value": "around 1 µM"}, {"measurement": "SG neurons alive", "setting": "[3]; after 48 h, Compound III-3 1 µM, NGF 20 ng/ml, 10% serum", "value": 94, "unit": "%"}, {"measurement": "SG survival", "setting": "[3]; after four days", "value": 83, "unit": "%"}, {"measurement": "ChAT-Positive Motor Neurons Average/Group", "setting": "[4]; 3.6 µg in gel foam", "value": "12.84*"}, {"measurement": "ChAT-Positive Motor Neurons Experimental/Control", "setting": "[4]; 3.6 µg in gel foam", "value": "55/420 and 72/572"}, {"measurement": "ChAT-Positive Motor Neurons %", "setting": "[4]; 3.6 µg in gel foam", "value": "13.10% and 12.59%"}, {"measurement": "ChAT-Positive Motor Neurons Average/Group", "setting": "[4]; 25 µg in gel foam", "value": "19.01*"}, {"measurement": "ChAT-Positive Motor Neurons Experimental/Control", "setting": "[4]; 25 µg in gel foam", "value": "95/597 and 142/642"}, {"measurement": "ChAT-Positive Motor Neurons %", "setting": "[4]; 25 µg in gel foam", "value": "15.91% and 22.12%"}, {"measurement": "ChAT-Positive Motor Neurons Average/Group", "setting": "[4]; 50 µg in gel foam", "value": "41.34*"}, {"measurement": "ChAT-Positive Motor Neurons Experimental/Control", "setting": "[4]; 50 µg in gel foam", "value": "278/637 and 188/484"}, {"measurement": "ChAT-Positive Motor Neurons %", "setting": "[4]; 50 µg in gel foam", "value": "43.85% and 38.84%"}, {"measurement": "ChAT-Positive Motor Neurons Average/Group", "setting": "[4]; 100 µg in gel foam", "value": "32.61*"}, {"measurement": "ChAT-Positive Motor Neurons Experimental/Control", "setting": "[4]; 100 µg in gel foam", "value": "465/920 and 235/784 and 178/770 and 182/679"}, {"measurement": "ChAT-Positive Motor Neurons %", "setting": "[4]; 100 µg in gel foam", "value": "50.54% and 29.98% and 23.12% and 26.80%"}, {"measurement": "ChAT-Positive Motor Neurons Average/Group", "setting": "[4]; 200 µg in gel foam", "value": "24.96*"}, {"measurement": "ChAT-Positive Motor Neurons Experimental/Control", "setting": "[4]; 200 µg in gel foam", "value": "99/461 and 159/559"}, {"measurement": "ChAT-Positive Motor Neurons %", "setting": "[4]; 200 µg in gel foam", "value": "21.48% and 28.44%"}, {"measurement": "weight loss, mortality, gross tissue damage", "setting": "[4]; any doses tested, hypoglossal axotomy model", "value": "no associated weight loss, mortality, or gross tissue damage"}, {"measurement": "more ChAT-immunoreactive motor neurons compared to the axotomized, untreated control", "setting": "[4]; maximally effective dose (50 µg), 7 days postaxotomy", "value": 40, "unit": "%"}, {"measurement": "loss of substantia nigra tyrosine hydroxylase immunoreactive neurons after MPTP lesion", "setting": "[5]", "value": "attenuated the loss"}, {"measurement": "JNK pathway activated by MEKK1", "setting": "[6]", "value": "did not interfere with the JNK pathway"}]}
